Tested on: MOLT-4 cancer cell line
Assay: Cell proliferation assay, MOLT-4 cancer cell line (ATPlite);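 further: luminescence read-out, percent growth versus compound-free DMSO wells as maximum growth, start-of-incubation signal separating growth from cell death, IC50 from logistic curve fit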
Type: cell-based
Conditions: Homo sapiens, MOLT-4; 72 hours incubation, ATPlite 1Step; read-out: IC50 MOLT-4 cell proliferation

| SMILES | IC50 |
| --- | --- |
| COc1cc(N2CCN(C)CC2)ccc1Nc1ncc2c(n1)-n1ccc(C(=O)Nc3c(C)cccc3F)c1CC2 [Example 24, N-(2-fluoro-6-methyl-phenyl)-2-[2-methoxy-4-(4-methylpiperazin-1-yl)anilino]-5,6-dihydropyrimido[4,5-e]indolizine-7-carboxamide] | 0.05 to 0.15 µM |
| CCOc1cc(N2CCN(C)CC2)ccc1Nc1ncc2c(n1)-n1ccc(C(=O)Nc3c(C)cccc3CC)c1CC2 [Example 32, 2-[2-Ethoxy-4-(4-methylpiperazin-1-yl)anilino]-N-(2-ethyl-6-methyl-phenyl)-5,6-dihydropyrimido[4,5-e]indolizine-7-carboxamide] | 0.05 to 0.15 µM |
| COCCn1nc(C)c(NC(=O)c2ccn3c2CCc2cnc(Nc4ccc(N5CCN(C)CC5)cc4OC)nc2-3)c1C [Example 26, N-[1-(2-methoxyethyl)-3,5-dimethyl-pyrazol-4-yl]-2-[2-methoxy-4-(4-methylpiperazin-1-yl)anilino]-5,6-dihydropyrimido[4,5-e]indolizine-7-carboxamide] | 0.05 to 0.15 µM |
| COCC(=O)N1CCN(c2ccc(Nc3ncc4c(n3)-n3ccc(C(=O)Nc5c(C)cccc5C)c3CC4)c(OC)c2)CC1 [Example 105, N-(2,6-dimethylphenyl)-2-[2-methoxy-4-[4-(2-methoxyacetyl)piperazin-1-yl]anilino]-5,6-dihydropyrimido[4,5-e]indolizine-7-carboxamide] | < 0.05 µM |
| CCc1n[nH]c(CC)c1NC(=O)c1ccn2c1CCc1cnc(Nc3ccc(OCCN(C)C)cc3OC)nc1-2 [Example 53, N-(3,5-diethyl-1H-pyrazol-4-yl)-2-[4-(2-dimethylaminoethyloxy)-2-methoxy-anilino]-5,6-dihydropyrimido[4,5-e]indolizine-7-carboxamide] | 0.05 to 0.15 µM |
| CCc1cccc(CC)c1NC(=O)c1ccn2c1CCc1cnc(Nc3ccc(N4CCNC(C)C4)cc3OC)nc1-2 (stereo not shown) [Example 116, N-(2,6-diethylphenyl)-2-[2-methoxy-4-(3-methylpiperazin-1-yl)anilino]-5,6-dihydropyrimido[4,5-e]indolizine-7-carboxamide] | < 0.05 µM |
| COc1cc(N2CCN(C)CC2)ccc1Nc1ncc2c(n1)-n1ccc(C(=O)Nc3c(C)nn(C)c3Cl)c1CC2 [Example 28, N-(5-chloro-1,3-dimethyl-pyrazol-4-yl)-2-[2-methoxy-4-(4-methylpiperazin-1-yl)anilino]-5,6-dihydropyrimido[4,5-e]indolizine-7-carboxamide] | 0.05 to 0.15 µM |
| COc1cc(C(=O)NC2CNC2)ccc1Nc1ncc2c(n1)-n1ccc(C(=O)Nc3c(C)cccc3C)c1CC2 [Example 104, 2-[4-(Azetidin-3-ylcarbamoyl)-2-methoxy-anilino]-N-(2,6-dimethylphenyl)-5,6-dihydropyrimido[4,5-e]indolizine-7-carboxamide] | 0.05 to 0.15 µM |
| Cc1cccc(C)c1NC(=O)c1ccn2c1CCc1cnc(Nc3ccc(C(=O)NC4CCN(C)CC4)cc3OC(F)F)nc1-2 [Example 37, 2-[2-(Difluoromethoxy)-4-[(1-methyl-4-piperidyl)carbamoyl]anilino]-N-(2,6-dimethylphenyl)-5,6-dihydropyrimido[4,5-e]indolizine-7-carboxamide] | < 0.05 µM |
| Cc1cc(OC2CCN(C)CC2)ccc1Nc1ncc2c(n1)-n1ccc(C(=O)Nc3c(C)cccc3Cl)c1CC2 [Example 46, N-(2-chloro-6-methyl-phenyl)-2-[2-methyl-4-[(1-methyl-4-piperidyl)oxy]anilino]-5,6-dihydropyrimido[4,5-e]indolizine-7-carboxamide] | < 0.05 µM |
| COc1cc(N2CCN(C(=O)C3(C)CNC3)CC2)ccc1Nc1ncc2c(n1)-n1ccc(C(=O)Nc3c(C)cccc3C)c1CC2 [Example 130, N-(2,6-dimethylphenyl)-2-[2-methoxy-4-[4-(3-methylazetidine-3-carbonyl)piperazin-1-yl]anilino]-5,6-dihydropyrimido[4,5-e]indolizine-7-carboxamide] | < 0.05 µM |
| COCCOCCOCCn1nc(C)c(NC(=O)c2ccn3c2CCc2cnc(Nc4ccc(N(C)CCCN(C)C)cc4OC)nc2-3)c1C [Example 135, 2-[4-[3-(Dimethylamino)propyl-methyl-amino]-2-methoxy-anilino]-N-[1-[2-[2-(-2-methoxyethoxy)ethoxy]ethyl]-3,5-dimethyl-pyrazol-4-yl]-5,6-dihydropyrimido[4,5-e]indolizine-7-carboxamide] | < 0.05 µM |
| COc1cc(OCCN(C)C)ccc1Nc1ncc2c(n1)-n1ccc(C(=O)Nc3c(C)cccc3Br)c1CC2 [Example 51, N-(2-bromo-6-methyl-phenyl)-2-[4-(2-dimethylaminoethyloxy)-2-methoxy-anilino]-5,6-dihydropyrimido[4,5-e]indolizine-7-carboxamide] | < 0.05 µM |
| CCN1CCCN(C(=O)c2ccc(Nc3ncc4c(n3)-n3ccc(C(=O)Nc5c(C)cccc5C)c3CC4)c(OC)c2)CC1 [Example 124, N-(2,6-dimethylphenyl)-2-[4-(4-ethyl-1,4-diazepane-1-carbonyl)-2-methoxy-anilino]-5,6-dihydropyrimido[4,5-e]indolizine-7-carboxamide] | < 0.05 µM |
| CCc1nn(CCOC)c(CC)c1NC(=O)c1ccn2c1CCc1cnc(Nc3ccc(N4CCNCC4)cc3OC)nc1-2 [Example 19, N-[3,5-diethyl-1-(2-methoxyethyl)pyrazol-4-yl]-2-(2-methoxy-4-piperazin-1-yl-anilino)-5,6-dihydropyrimido[4,5-e]indolizine-7-carboxamide] | < 0.05 µM |
| [2H]C([2H])([2H])Oc1cc(N2CCN(C)CC2)ccc1Nc1ncc2c(n1)-n1ccc(C(=O)Nc3c(CC)cccc3CC)c1CC2 [Example 99, N-(2,6-diethylphenyl)-2-[4-(4-methylpiperazin-1-yl)-2-(trideuteriomethoxy)anilino]-5,6-dihydropyrimido[4,5-e]indolizine-7-carboxamide] | < 0.05 µM |
| CCc1nn(CCOC)c(CC)c1NC(=O)c1ccn2c1CCc1cnc(Nc3ccc(C(=O)N(C)CCCN(C)C)cc3OC)nc1-2 [Example 88, N-[3,5-diethyl-1-(2-methoxyethyl)pyrazol-4-yl]-2-[4-[3-(dimethylamino)propyl-methyl-carbamoyl]-2-methoxy-anilino]-5,6-dihydropyrimido[4,5-e]indolizine-7-carboxamide] | 0.05 to 0.15 µM |
| COCCn1nc(C)c(NC(=O)c2ccn3c2CCc2cnc(Nc4ccc(OC5CCN(C)CC5)cc4OC)nc2-3)c1C [Example 44, N-[1-(2-methoxyethyl)-3,5-dimethyl-pyrazol-4-yl]-2-[2-methoxy-4-[(1-methyl-4-piperidyl)oxy]anilino]-5,6-dihydropyrimido[4,5-e]indolizine-7-carboxamide] | 0.05 to 0.15 µM |
| COc1cc(N2CCN(C)CC2)ccc1Nc1ncc2c(n1)-n1ccc(C(=O)Nc3c(C)ccnc3Cl)c1CC2 [Example 25, N-(2-chloro-4-methyl-3-pyridyl)-2-[2-methoxy-4-(4-methylpiperazin-1-yl)anilino]-5,6-dihydropyrimido[4,5-e]indolizine-7-carboxamide] | 0.05 to 0.15 µM |
| COCCOCCOCCn1nc(C)c(NC(=O)c2ccn3c2CCc2cnc(Nc4ccc(OCCOC)cc4OC)nc2-3)c1C [Example 137, N-[1-[2-[2-(2-methoxyethoxy)ethoxy]ethyl]-3,5-dimethyl-pyrazol-4-yl]-2-[2-methoxy-4-(2-methoxyethoxy)anilino]-5,6-dihydropyrimido[4,5-e]indolizine-7-carboxamide] | < 0.05 µM |
| CCc1cccc(CC)c1NC(=O)c1ccn2c1CCc1cnc(Nc3ccc(OC4CCN(C)CC4)cc3OC)nc1-2 [Example 43, N-(2,6-diethylphenyl)-2-[2-methoxy-4-[(1-methyl-4-piperidyl)oxy]anilino]-5,6-dihydropyrimido[4,5-e]indolizine-7-carboxamide] | < 0.05 µM |
| CCc1cccc(C)c1NC(=O)c1ccn2c1CCc1cnc(Nc3ccc(N4CCN(C)CC4)cc3OC)nc1-2 [Example 72, N-(2-ethyl-6-methyl-phenyl)-2-[2-methoxy-4-(4-methylpiperazin-1-yl)anilino]-5,6-dihydropyrimido[4,5-e]indolizine-7-carboxamide] | < 0.05 µM |
| Cc1cc(N2CCOCC2)ccc1Nc1ncc2c(n1)-n1ccc(C(=O)Nc3c(C)cccc3C)c1CC2 [Example 56, N-(2,6-dimethylphenyl)-2-(2-methyl-4-morpholino-anilino)-5,6-dihydropyrimido[4,5-e]indolizine-7-carboxamide] | < 0.05 µM |
| COc1cc(N2CCN(C)CC2)ccc1Nc1ncc2c(n1)-n1ccc(C(=O)Nc3c(C)cccc3CO)c1CC2 [Example 23, N-[2-(hydroxymethyl)-6-methyl-phenyl]-2-[2-methoxy-4-(4-methylpiperazin-1-yl)anilino]-5,6-dihydropyrimido[4,5-e]indolizine-7-carboxamide] | 0.05 to 0.15 µM |
| CCc1n[nH]c(CC)c1NC(=O)c1ccn2c1CCc1cnc(Nc3ccc(OC4CCN(C)CC4)cc3C)nc1-2 [Example 47, N-(3,5-diethyl-1H-pyrazol-4-yl)-2-[2-methyl-4-[(1-methyl-4-piperidyl)oxy]anilino]-5,6-dihydropyrimido[4,5-e]indolizine-7-carboxamide] | < 0.05 µM |
| COc1cc(N2CCN(C)CC2)ccc1Nc1ncc2c(n1)-n1ccc(C(=O)Nc3c(C)cccc3OC)c1CC2 [Example 10, N-(2-methoxy-6-methyl-phenyl)-2-[2-methoxy-4-(4-methylpiperazin-1-yl)anilino]-5,6-dihydropyrimido[4,5-e]indolizine-7-carboxamide] | 0.05 to 0.15 µM |
| COc1cc(C(=O)NCC(C)(C)O)ccc1Nc1ncc2c(n1)-n1ccc(C(=O)Nc3c(C)cccc3C)c1CC2 [Example 1, N-(2,6-dimethylphenyl)-2-[4-[(2-hydroxy-2-methyl-propyl)carbamoyl]-2-methoxy-anilino]-5,6-dihydropyrimido[4,5-e]indolizine-7-carboxamide] | < 0.05 µM |
| CCc1cccc(CC)c1NC(=O)c1ccn2c1CCc1cnc(Nc3ccc(C(=O)NC4CCN(C)CC4)cc3C)nc1-2 [Example 36, N-(2,6-diethylphenyl)-2-[2-methyl-4-[(1-methyl-4-piperidyl)carbamoyl]anilino]-5,6-dihydropyrimido[4,5-e]indolizine-7-carboxamide] | 0.05 to 0.15 µM |

Reference: patent USRE50082E1, “(5,6-dihydro)pyrimido[4,5-e]indolizines” (NETHERLANDS TRANSLATIONAL RESEARCH CENTER B.V., priority 2014, dated 2024)
